Data from PubChem BioAssay (NCI).
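Growth conditions: 96-well plates. Treatment: test compound, 48 hours, 5 concentrations. Analysis: linear interpolation between bracketing concentrations; unreached endpoints set to highest concentration. TGI denotes the concentration required for complete inhibition of growth.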

Key:
Test in all cases: inhibition of tumour cell growth, NCI panel, 48 h
UACC-62 melanoma = tested on: UACC-62 melanoma
M14 melanoma = tested on: M14 melanoma
U251 CNS = tested on: U251 CNS
OVCAR-3 ovarian = tested on: OVCAR-3 ovarian
IGROV1 ovarian = tested on: IGROV1 ovarian
SN12C renal = tested on: SN12C renal
COLO 205 colon = tested on: COLO 205 colon
OVCAR-5 ovarian = tested on: OVCAR-5 ovarian
MOLT-4 leukemia = tested on: MOLT-4 leukemia
SK-OV-3 ovarian = tested on: SK-OV-3 ovarian

SMILES	TGI (UACC-62 melanoma) [µM]	TGI (M14 melanoma) [µM]	TGI (U251 CNS) [µM]	TGI (OVCAR-3 ovarian) [µM]	TGI (IGROV1 ovarian) [µM]	TGI (SN12C renal) [µM]	TGI (COLO 205 colon) [µM]	TGI (OVCAR-5 ovarian) [µM]	TGI (MOLT-4 leukemia) [µM]	TGI (SK-OV-3 ovarian) [µM]
O=c1[nH]n(Cc2ccccc2CCl)c2ccc([N+](=O)[O-])cc12	> 100	> 100	> 100	> 100	> 100	> 100	62.5	> 100	90.8	81.8
COc1cc(/C=N/NC2=NCCCN2)ccc1O	> 100	> 100	> 100	> 100	> 100	> 100	> 100	> 100	> 100	> 100
CC(C)C(Cl)CC/C(CBr)=C(\Cl)CCl (stereo not given)	6.16	4.06	23.1	10.4	4.09	10.2	12.8	31.2	> 20.3	17.8
CCO/C(O)=C(/C(=N)N1CCCC1)C(=O)Nc1ccc(Cl)cc1	> 100	> 100	> 100	> 100	> 100	> 100	> 100	> 100	> 100	> 100
CN1CCC/C1=C1\C(=O)c2cccn2C1=O	> 100	> 100	> 100	> 100	> 100	> 100	> 100	> 100	> 100	> 100
COc1ccc(NC(C)=O)cc1N1C(=O)/C(=C\c2cc(OC)c(OC)c(OC)c2)S(=O)(=O)C1c1ccccc1 (stereo not given)	> 100	> 100	> 100	> 100	> 100	> 100	> 100	> 100	> 100	> 100
N#CC1=C(N)Nc2nc3ccccc3n2C1c1ccccc1 (stereo not given)	> 100	> 100	> 100	97.7	> 100	> 100	> 100	> 100	> 100	> 100
O=Cc1ccc2c(c1)CC1(C2)Cc2ccc(C=O)cc2C1	23.8	19.7	41.7	34.1	54.5	64.5	70.9	> 100	7.11	> 100
O=C(/C=C\c1ccccc1-c1ccccc1)c1ccccc1	> 100	> 100	> 100	> 100	> 100	> 100	> 100	> 100	> 100	> 100
N#CC1=C(N2CCOCC2)CCC1	> 100	> 100	> 100	> 100	> 100	> 100	> 100	> 100	> 100	> 100
CC(=C(C(=O)O)C(=O)O)c1cc(-c2cccs2)cc(-c2ccc(Cl)cc2)c1O	35.7	32.7	29.3	33.6	29.3	30.5	44.8	> 86.8	69.7	> 82.5
